Patent publication US9353072B2, “Antimicrobial substituted thiazoles and methods of use” (Purdue Research Foundation, priority 2012, dated 2016)
In brackets after ≈: the same amount, converted by molar mass. Entries after “also recorded” stand apart in the source; their conditions may differ. Like-named read-outs stand apart in the source and are kept apart here. Blank lines part the entries; values can stand above or below the compound they belong to.

How the values were obtained:
MRSA ATCC 43300 [1] = assay: MIC/MBC broth microdilution, MRSA ATCC 43300; type: cell-based, Staphylococcus aureus; settings: Staphylococcus aureus
Summary of the method: (§1)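 Compounds were tested in triplicate samples against each MRSA strain, and the MIC was then read by broth microdilution as recommended by CLSI.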

[2] = test system: MRSA ATCC 700699 (NRS1, VISA); assay: MIC/MBC broth microdilution, NRS1 (ATCC 700699); type: cell-based; settings: Staphylococcus aureus
Summary of the method: as §1

VISA HIP07256 (NRS19) = assay: MIC/MBC broth microdilution, NRS19 (VISA HIP07256); type: cell-based; settings: Staphylococcus aureus
Summary of the method: as §1

VISA LIM 3 (NRS37) = assay: MIC/MBC broth microdilution, NRS37 (VISA LIM 3); type: cell-based; settings: Staphylococcus aureus
Summary of the method: as §1

NRS107 = assay: MIC/MBC broth microdilution, NRS107; type: cell-based; settings: Staphylococcus aureus
Summary of the method: as §1

NRS119 = assay: MIC/MBC broth microdilution, NRS119; type: cell-based; settings: Staphylococcus aureus
Summary of the method: as §1

MRSA USA400 (NRS123) = assay: MIC/MBC broth microdilution, NRS123 (USA400); type: cell-based; settings: Staphylococcus aureus, Table 8, NRS123
Summary of the method: as §1

NRS194 = assay: MIC/MBC broth microdilution, NRS194; type: cell-based; settings: Staphylococcus aureus
Summary of the method: as §1

MRSA USA100 = assay: MIC broth microdilution, MRSA USA100; type: cell-based; settings: Staphylococcus aureus; Table 2; MRSA USA100; read-out: Minimum Inhibitory Concentration
Description: (§2) Determination of minimum inhibitory concentration (MIC). The MICs of the lead thiazole compound (compound 1a) and nine derivatives tested against all 18 MRSA strains were determined, in triplicate samples, using the broth microdilution method in accordance with the recommendations contained in the CLSI guidelines.

MRSA NRS384 (USA300) = assay: MIC/MBC broth microdilution, NRS384 (USA300); type: cell-based; settings: Staphylococcus aureus
Summary of the method: as §1

MRSA USA500 (NRS385) = assay: MIC/MBC broth microdilution, NRS385 (USA500); type: cell-based; settings: Staphylococcus aureus
Summary of the method: as §1

MRSA USA700 = assay: MIC broth microdilution, MRSA USA700; type: cell-based; settings: Staphylococcus aureus, Table 2, read-out: Minimum Inhibitory Concentration
Description: as §2

MRSA USA800 = assay: MIC broth microdilution, MRSA USA800; type: cell-based; settings: Staphylococcus aureus, Table 2, read-out: Minimum Inhibitory Concentration
Description: as §2

VRSA (VRS10) = assay: MIC/MBC broth microdilution, VRSA (VRS10); type: cell-based, Staphylococcus aureus; settings: for MIC: Staphylococcus aureus, read-out: Minimum Inhibitory Concentration
Description: as §2

[3] = test system: 18 different strains of MRSA and VRSA; assay: MIC broth microdilution, panel of 18 MRSA and VRSA strains (summary statements); type: cell-based, Staphylococcus aureus; settings: 18 strains of MRSA and VRSA
Description: as §2

MRSA (USA300) = assay: Time-kill assay; type: cell-based, Staphylococcus aureus; settings: 3.0×MIC; for bactericidal effect in time-kill assay: 12 hour incubation at 37° C.; for time to eliminate MRSA completely (reduce CFU to zero): MRSA (USA300)
Description: Time-kill assay. […] Viable CFU/mL was determined by serial dilution and plating on trypticase soy agar (TSA) (Becton, Dickinson and Company, Sparks, Md., USA) plates after 0, 2, 4, 6, 8, 10, and 12 hours of incubation at 37° C. to identify the time required to reduce the bacterial cell count by 3-log10.

MRSA ATCC 43300 [4] = assay: Flow cytometry with LIVE/DEAD Fixable Dead Cell Stain; type: cell-based, Staphylococcus aureus; settings: compound 1a at 4.0×MIC; lysostaphin positive control; 10 minutes at 37° C.
Description: Flow cytometry and LIVE/DEAD® Fixable Dead Cell Stain: The action of the lead compound on cell membrane permeability of MRSA was assayed using the LIVE/DEAD® Fixable Dead Cell Stain Kit (Invitrogen, Eugene, Oreg., USA) according to the manufacturer's instructions. […] Post-treatment cells were fixed with 3.7% formaldehyde; the cells were then screened with a Beckman Coulter FC500 flow cytometer.

NRS108 = assay: MIC broth microdilution, NRS108; type: cell-based; settings: Staphylococcus aureus, Table 2, read-out: Minimum Inhibitory Concentration
Description: as §2

MRSA USA200 = assay: MIC broth microdilution, MRSA USA200; type: cell-based; settings: Staphylococcus aureus; Table 2; MRSA USA200; read-out: Minimum Inhibitory Concentration
Description: as §2

MRSA USA1000 = assay: MIC broth microdilution, MRSA USA1000; type: cell-based; settings: Staphylococcus aureus, Table 2, read-out: Minimum Inhibitory Concentration
Description: as §2

[5] = test system: murine macrophage cells (J774.A1); assay: In vitro cytotoxicity analysis, MTS assay; type: cell-based; settings: 16 μM, 24 hours
Description: In vitro cytotoxicity analysis: Compounds were assayed at concentrations of 2 μM, 4 μM, 8 μM, and 16 μM against a macrophage cell line (J774.A1) to determine the potential toxic effect in vitro. Murine macrophage cells were cultured in Dulbeco's Modified Eagle Medium (Sigma-Aldrich, St. Louis, Mo., USA) with 10% Fetal Bovine Serum (USA Scientific, Inc.) at 37° C. with 5% CO2. Controls received DMSO alone at a concentration equal to that in drug-treated cell samples. The cells were incubated with the compounds in a 96-Well Plate at 37° C. and 5.0% CO2 for 24 hours prior to addition of the assay reagent MTS 3-(4,5-dimethylthiazol-2-yl)-5-(3-carboxymethoxyphenyl)-2-(4-sulfophenyl)-2H-tetrazolium) (Promega, Madison, Wis., USA). The reagent measures the succinate dehydrogenase mitochondrial activity as an indicator of cell viability and proliferation. Corrected absorbance readings (actual absorbance readings for each treatment subtracted from background absorbance) were taken using a kinetic ELISA microplate reader (Molecular Devices, Sunnyvale, Calif., USA). The quantity of viable cells after treatment with each compound was expressed as a percentage of the control, DMSO.

[6] = Table 2, MRSA ATCC 700699, read-out: Minimum Inhibitory Concentration
[7] = Table 2, VISA HIP07256, read-out: Minimum Inhibitory Concentration
[8] = Table 2, VISA LIM 3, read-out: Minimum Inhibitory Concentration
[9] = Table 2, MRSA USA300, read-out: Minimum Inhibitory Concentration
[10] = Table 2, MRSA USA500, read-out: Minimum Inhibitory Concentration
[11] = Table 2, read-out: Minimum Inhibitory Concentration

MIC (MRSA ATCC 43300 [1]; Table 4, MRSA ATCC 43300, 64 μM down to 0.5 μM, 37° C., 19 hours, read-out: Minimum Inhibitory Concentration): 4 µM
MIC (MRSA ATCC 43300 [1]; Table 7, MRSA (ATCC 43300), read-out: Minimum Inhibitory Concentration): 4 µM
MIC (MRSA ATCC 43300 [1]; Table 8, ATCC 43300, read-out: MIC): 4 µM
MIC [2, 6]: 1.4 µg/mL
MIC ([2]; Table 7, VISA (NRS1), read-out: Minimum Inhibitory Concentration): 16 µM
MIC ([2]; Table 8, NRS1 (VISA), triplicates, 20 hours, read-out: MIC): 4 µM
MIC (VISA HIP07256 (NRS19); [7]): 1.4 µg/mL
MIC (VISA HIP07256 (NRS19); Table 8, NRS19 (VISA), read-out: MIC): 4 µM
MIC (VISA LIM 3 (NRS37); [8]): 1.4 µg/mL
MIC (VISA LIM 3 (NRS37); Table 8, NRS37 (VISA), read-out: MIC): 8 µM
MIC (NRS107; Table 8, read-out: MIC): 8 µM
MIC (NRS119; NRS 119 / VISA, Table 7, VISA (NRS119), read-out: Minimum Inhibitory Concentration): 4 µM
MIC (NRS119; Table 8, NRS119, read-out: MIC): 8 µM
MIC (MRSA USA400 (NRS123); read-out: MIC): 4 µM (≈ 1.32 µg/mL)
MIC (NRS194; Table 8, read-out: MIC): 4 µM
MIC (MRSA USA100): 5.5 µg/mL (≈ 16.7 µM)
MIC (MRSA NRS384 (USA300); [9]): 1.4 µg/mL
MIC (MRSA NRS384 (USA300); Table 5, MRSA NRS384 (USA300), 128 μM down to 1.0 μM, 37° C., 19 hours, read-out: Minimum Inhibitory Concentration): 4 µM
MIC (MRSA NRS384 (USA300); Table 8, NRS384, read-out: MIC): 4 µM
MIC (MRSA USA500 (NRS385); [10]): 1.4 µg/mL
MIC (MRSA USA500 (NRS385); Table 8, NRS385, read-out: MIC): 4 µM
MIC (MRSA USA700): 1.4 µg/mL (≈ 4.25 µM)
MIC (MRSA USA800): 2.8 µg/mL (≈ 8.5 µM)
MIC (VRSA (VRS10); Table 7, VRSA (VRS10)): 4 µM
concentration inhibiting growth (MIC), range over the strains tested [3]: 1.4 to 5.5 µg/mL
SMILES: CCCCc1ccc(-c2nc(C)c(/C(C)=N/NC(=N)N)s2)cc1 [Compound 1a]
MBC (MRSA ATCC 43300 [1]; Table 8, ATCC 43300, read-out: MBC): 4 µM (≈ 1.32 µg/mL)
MBC ([2]; Table 8, NRS1 (VISA), read-out: MBC): 8 µM (≈ 2.64 µg/mL)
MBC (VISA HIP07256 (NRS19); Table 8, NRS19 (VISA), read-out: MBC): 8 µM (≈ 2.64 µg/mL)
MBC (VISA LIM 3 (NRS37); Table 8, NRS37 (VISA), read-out: MBC): 8 µM (≈ 2.64 µg/mL)
MBC (NRS107; Table 8, read-out: MBC): 8 µM (≈ 2.64 µg/mL)
MBC (NRS119; Table 8, NRS119, read-out: MBC): 8 µM (≈ 2.64 µg/mL)
MBC (MRSA USA400 (NRS123); read-out: MBC): 4 µM (≈ 1.32 µg/mL)
MBC (NRS194; Table 8, read-out: MBC): 4 µM (≈ 1.32 µg/mL)
MBC (MRSA NRS384 (USA300); Table 8, NRS384, read-out: MBC): 4 µM (≈ 1.32 µg/mL)
MBC (MRSA USA500 (NRS385); Table 8, NRS385, read-out: MBC): 4 µM (≈ 1.32 µg/mL)
bactericidal effect in time-kill assay (MRSA (USA300)): bactericidal
time to eliminate MRSA completely (reduce CFU to zero) (MRSA (USA300)): within two hours
cells stained with the dye (MRSA ATCC 43300 [4]): 1.5%

MIC (MRSA ATCC 43300 [1]; Table 2, MRSA ATCC 43300, read-out: Minimum Inhibitory Concentration): 0.8 µg/mL
MIC [2, 6]: 0.5 µg/mL
MIC (VISA LIM 3 (NRS37); [8]): 0.5 µg/mL
MIC (NRS107; [11]): 0.5 µg/mL
MIC (NRS108): 1.1 µg/mL (≈ 3.2 µM)
MIC (NRS119; Table 2, NRS119, read-out: Minimum Inhibitory Concentration): 1.1 µg/mL
MIC (NRS194; [11]): 1.1 µg/mL
MIC (MRSA USA500 (NRS385); [10]): 1.1 µg/mL
MIC (MRSA USA700): 1.1 µg/mL (≈ 3.2 µM)
MIC (MRSA USA800): 0.5 µg/mL (≈ 1.46 µM)
SMILES: CCCCCc1ccc(-c2nc(C)c(/C(C)=N/NC(=N)N)s2)cc1 [Compound 1d]
bactericidal effect in time-kill assay (MRSA (USA300)): bactericidal
time to eliminate MRSA completely (reduce CFU to zero) (MRSA (USA300)): within two hours

MIC [2, 6]: 0.7 µg/mL
MIC (VISA LIM 3 (NRS37); [8]): 0.7 µg/mL
MIC (NRS107; [11]): 0.7 µg/mL
MIC (MRSA USA100): 1.5 µg/mL (≈ 4.04 µM)
MIC (MRSA USA200): 1.5 µg/mL (≈ 4.04 µM)
MIC (MRSA NRS384 (USA300); [9]): 3 µg/mL
MIC (MRSA USA500 (NRS385); [10]): 3 µg/mL
MIC (MRSA USA700): 3 µg/mL (≈ 8.07 µM)
MIC (MRSA USA1000): 3 µg/mL (≈ 8.07 µM)
MIC (VRSA (VRS10); Table 2, VRSA): 3 µg/mL
SMILES: CCCCCCCc1ccc(-c2nc(C)c(/C(C)=N/NC(=N)N)s2)cc1 [Compound 1e]
toxicity toward murine macrophage cells [5]: exhibited toxicity; also recorded: toxic

MIC [2, 6]: 3.8 µg/mL
MIC (VISA HIP07256 (NRS19); [7]): 1.9 µg/mL
MIC (NRS107; [11]): 1.9 µg/mL
MIC (NRS108): 1.9 µg/mL (≈ 5.87 µM)
MIC (NRS194; [11]): 1.9 µg/mL
MIC (MRSA USA200): 1.9 µg/mL (≈ 5.87 µM)
MIC (MRSA USA500 (NRS385); [10]): 1.9 µg/mL
MIC (MRSA USA700): 1.9 µg/mL (≈ 5.87 µM)
MIC (VRSA (VRS10); Table 2, VRSA): 0.5 µg/mL
reduction in MIC compared to 1a against VRSA (VRSA (VRS10); VRSA): near three-fold reduction
SMILES: C/C(=N\NC(=N)N)c1sc(-c2ccc3ccccc3c2)nc1C [Compound 1h, 2-{1-[4-Methyl-2-(naphthalen-2-yl)thiazol-5-yl]ethylidene}hydrazinecarboximid-amide]
toxicity toward murine macrophage cells [5]: exhibited toxicity
